biological target: T1, GCS (Canis lupus familiaris, UniProt A0A8I3MXG6); test: Assay 1: GCS Enzymatic Assay (MDCK cell lysate, C6-NBD-Ceramide, LC/MS); assay type: biochemical, canine; details: Table 1; MDCK cell lysate; read-out: IC50 (nM) generated from Assay 1
T1 sequence (A0A8I3MXG6 1-394): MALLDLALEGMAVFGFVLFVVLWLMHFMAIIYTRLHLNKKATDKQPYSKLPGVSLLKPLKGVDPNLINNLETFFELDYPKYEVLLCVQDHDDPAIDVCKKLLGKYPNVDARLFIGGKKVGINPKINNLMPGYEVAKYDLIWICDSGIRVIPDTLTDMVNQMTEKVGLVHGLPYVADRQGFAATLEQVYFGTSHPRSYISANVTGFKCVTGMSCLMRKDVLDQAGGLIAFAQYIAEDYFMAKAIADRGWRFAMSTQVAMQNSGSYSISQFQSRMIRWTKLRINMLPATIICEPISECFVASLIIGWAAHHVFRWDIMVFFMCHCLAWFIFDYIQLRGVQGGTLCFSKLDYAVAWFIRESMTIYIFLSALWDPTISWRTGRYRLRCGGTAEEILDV
Method in brief: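 LC/MS/MS measurement of glucosylceramide and NBD-ceramide after a 1 h, 37 °C reaction with 100 μM UDP-glucose and 10 μM C6-NBD-ceramide gave IC50s or percent inhibition.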

Compound | IC50
O=C(N[C@H](CN1CCCC1)[C@H](O)c1ccc2c(c1)OCCO2)C(F)(F)CCc1cccc(-c2ccccn2)c1 [Compound 16, N-((1R,2R)-1-(2,3-dihydrobenzo[b][1,4]dioxin-6-yl)-1-hydroxy-3-(pyrrolidin-1-yl)propan-2-yl)-2,2-difluoro-4-(3-(pyridin-2-yl)phenyl)butanamide] | < 50 nM
O=C(N[C@H](CN1C2CCC1CC2)[C@H](O)c1ccc2c(c1)OCCO2)C(F)(F)c1cc2cc(Cl)ccc2o1 [Compound 53, N-((1R,2R)-3-(7-azabicyclo[2.2.1]heptan-7-yl)-1-(2,3-dihydrobenzo[b][1,4]dioxin-6-yl)-1-hydroxypropan-2-yl)-2-(5-chlorobenzofuran-2-yl)-2,2-difluoroacetamide] | < 50 nM
O=C(N[C@H](CN1CCCC1)[C@@H](O)c1cc2c(cc1F)OCCO2)C(F)(F)C1Cc2ccccc2C1 [Compound 12B, 2-(2,3-dihydro-1H-inden-2-yl)-2,2-difluoro-N-((1S,2R)-1-(7-fluoro-2,3-dihydrobenzo[b][1,4]dioxin-6-yl)-1-hydroxy-3-(pyrrolidin-1-yl)propan-2-yl)acetamide] | 50 to 5000 nM

same assay, conditions: Table 1; values marked *; MDCK cell lysate

Compound | % inhibition generated from Assay 1
COc1ccc(F)c([C@H](O)[C@@H](CN2CCCC2)NC(=O)C(F)(F)C2Cc3ccccc3C2)c1 [Compound 8J, 2-(2,3-dihydro-1H-inden-2-yl)-2,2-difluoro-N-((1S,2R)-1-(2-fluoro-5-methoxyphenyl)-1-hydroxy-3-(pyrrolidin-1-yl)propan-2-yl)acetamide] | B* (the compound had a % inhibition of greater than or equal to about 3% but less than about 50%)
O=C(N[C@H](CN1CCCC1)[C@@H](O)c1ccc(OC(F)(F)F)cc1)C(F)(F)c1cc2cc(Cl)ccc2o1 [Compound 37G, 2-(5-chlorobenzofuran-2-yl)-2,2-difluoro-N-((1S,2R)-1-hydroxy-3-(pyrrolidin-1-yl)-1-(4-(trifluoromethoxy)phenyl)propan-2-yl)acetamide] | B* (the compound had a % inhibition of greater than or equal to about 3% but less than about 50%)
O=C(N[C@H](CN1CCCC1)[C@H](O)c1ccc(OC(F)(F)F)cc1)C(F)(F)c1cc2cc(Cl)ccc2o1 [Compound 37, 2-(5-chlorobenzofuran-2-yl)-2,2-difluoro-N-((1R,2R)-1-hydroxy-3-(pyrrolidin-1-yl)-1-(4-(trifluoromethoxy)phenyl)propan-2-yl)acetamide] | B* (the compound had a % inhibition of greater than or equal to about 3% but less than about 50%)

same assay, conditions: Table 2; data marked by *

Compound | % inhibition generated from Assay 1
CC(C)Oc1ccc([C@@H](O)[C@@H](CN2CCCC2)NC(=O)C(F)(F)CCc2ccc3cc(F)ccc3c2)cn1 [Compound 97, 2,2-difluoro-4-(6-fluoronaphthalen-2-yl)-N-((1R,2R)-1-hydroxy-1-(6-isopropoxypyridin-3-yl)-3-(pyrrolidin-1-yl)propan-2-yl)butanamide] | A* (the compound had a % inhibition of a percent inhibition of greater than or equal to about 50%)
CC(C)(O)COc1ccc([C@@H](O)[C@@H](CN2CCCC2)NC(=O)C(F)(F)C2Cc3ccc(Cl)cc3C2)cc1Cl (stereo partly drawn) [Compound 192, 2-(5-chloro-2,3-dihydro-1H-inden-2-yl)-N-((1R,2R)-1-(3-chloro-4-(2-hydroxy-2-methylpropoxy)phenyl)-1-hydroxy-3-(pyrrolidin-1-yl)propan-2-yl)-2,2-difluoroacetamide] | A* (the compound had a % inhibition of a percent inhibition of greater than or equal to about 50%)

same assay, conditions: Table 2; data without asterisk; read-out: IC50 (nM) generated from Assay 1

Compound | IC50
O=C(N[C@H](CN1CCCC1)[C@H](O)c1ccc(OC2CC2)c(Cl)c1)C(=O)c1cc2ccc(Cl)cc2s1 [Compound 242, N-((1R,2R)-1-(3-chloro-4-cyclopropoxyphenyl)-1-hydroxy-3-(pyrrolidin-1-yl)propan-2-yl)-2-(6-chlorobenzo[b]thiophen-2-yl)-2-oxoacetamide] | < 50 nM
CC(C)n1ccc2ccc(-c3ccc(C(=O)C(=O)N[C@H](CN4CCCC4)[C@H](O)c4ccc(OC5CC5)c(Cl)c4)cc3)cc21 [Example 346, N-((1R,2R)-1-(3-chloro-4-cyclopropoxyphenyl)-1-hydroxy-3-(pyrrolidin-1-yl)propan-2-yl)-2-(4-(1-isopropyl-1H-indo1-6-yl)phenyl)-2-oxoacetamide] | < 50 nM
O=C(CCc1ccc2cc(F)ccc2c1)C(=O)N[C@H](CN1CCCC1)[C@H](O)c1ccc2c(c1)OCCO2 [Compound 90, N-((1R,2R)-1-(2,3-dihydrobenzo[b][1,4]dioxin-6-yl)-1-hydroxy-3-(pyrrolidin-1-yl)propan-2-yl)-4-(6-fluoronaphthalen-2-yl)-2-oxobutanamide] | < 50 nM
O=C(N[C@H](CN1CCC1)[C@H](O)c1ccc2c(c1)OCCO2)C(F)(F)c1ccc(-c2ccc(F)cc2)cc1 [Compound 161, N-((1R,2R)-3-(azetidin-1-yl)-1-(2,3-dihydrobenzo[b][1,4]dioxin-6-yl)-1-hydroxypropan-2-yl)-2,2-difluoro-2-(4′-fluoro-[1,1′-biphenyl]-4-yl)acetamide] | < 50 nM
O=C(N[C@H](CN1CCCC1)[C@H](O)c1cc(F)c2c(c1)OCCO2)C(=O)c1ccc2c(cnn2Cc2ccc(F)cc2)c1 [Example 289, N-((1R,2R)-1-(8-fluoro-2,3-dihydrobenzo[b][1,4]dioxin-6-yl)-1-hydroxy-3-(pyrrolidin-1-yl)propan-2-yl)-2-(1-(4-fluorobenzyl)-1H-indazol-5-yl)-2-oxoacetamide] | < 50 nM
O=C(N[C@H](CN1CCC1)[C@H](O)c1ccc2c(c1)OCCO2)C(=O)c1cc2cc(Cl)ccc2o1 [Compound 78, N-((1R,2R)-3-(azetidin-1-yl)-1-(2,3-dihydrobenzo[b][1,4]dioxin-6-yl)-1-hydroxypropan-2-yl)-2-(5-chlorobenzofuran-2-yl)-2-oxoacetamide] | < 50 nM
O=C(N[C@H](CN1CCCC1)[C@H](O)c1ccc(OC2CC2)c(F)c1)C(=O)c1cc2ccc(Cl)cc2s1 [Example 292, 2-(6-chlorobenzo[b]thiophen-2-yl)-N-((1R,2R)-1-(4-cyclopropoxy-3-fluorophenyl)-1-hydroxy-3-(pyrrolidin-1-yl)propan-2-yl)-2-oxoacetamide] | < 50 nM
O=C(N[C@H](CN1CCCC1)[C@H](O)c1cc(F)c2c(c1)OCCO2)C(=O)c1ccc2nn(Cc3ccc(F)cc3)cc2c1 [Example 305, N-((1R,2R)-1-(8-fluoro-2,3-dihydrobenzo[b][1,4]dioxin-6-yl)-1-hydroxy-3-(pyrrolidin-1-yl)propan-2-yl)-2-(2-(4-fluorobenzyl)-2H-indazol-5-yl)-2-oxoacetamide] | < 50 nM
O=C(CCc1ccc2cc(F)ccc2c1)C(=O)N[C@H](CN1CCCC1)[C@H](O)c1cc(F)c2c(c1)OCCO2 [Compound 111, N-((1R,2R)-1-(8-fluoro-2,3-dihydrobenzo[b][1,4]dioxin-6-yl)-1-hydroxy-3-(pyrrolidin-1-yl)propan-2-yl)-4-(6-fluoronaphthalen-2-yl)-2-oxobutanamide] | < 50 nM
Cc1c2ccc(-c3ccc(C(=O)C(=O)N[C@H](CN4CCCC4)[C@H](O)c4ccc(OC5CC5)c(Cl)c4)cc3)cc2nn1C [Example 347, N-((1R,2R)-1-(3-chloro-4-cyclopropoxyphenyl)-1-hydroxy-3-(pyrrolidin-1-yl)propan-2-yl)-2-(4-(2,3-dimethyl-2H-indazol-6-yl)phenyl)-2-oxoacetamide] | < 50 nM
O=C(N[C@H](CN1CCC1)[C@H](O)c1cc(Cl)c2c(c1)OCCO2)C(=O)c1ccc(-c2ccc(F)cc2)cc1 [Example 300, N-((1R,2R)-3-(azetidin-1-yl)-1-(8-chloro-2,3-dihydrobenzo[b][1,4]dioxin-6-yl)-1-hydroxypropan-2-yl)-2-(4′-fluoro-[1,1′-biphenyl]-4-yl)-2-oxoacetamide] | < 50 nM
N#Cc1ccc(-c2ccc(C(=O)C(=O)N[C@H](CN3CCCC3)[C@H](O)c3ccc(OC4CC4)c(Cl)c3)cc2)cc1 [Example 301, N-((1R,2R)-1-(3-chloro-4-cyclopropoxyphenyl)-1-hydroxy-3-(pyrrolidin-1-yl)propan-2-yl)-2-(4′-cyano-[1,1′-biphenyl]-4-yl)-2-oxoacetamide] | < 50 nM
O=C(N[C@@H](Cc1ccc(OC2CC2)c(Cl)c1)CN1CCCC1)C(=O)c1ccc(-c2ccc(F)cc2)cc1 [Example 326, (S)-N-(1-(3-chloro-4-cyclopropoxyphenyl)-3-(pyrrolidin-1-yl)propan-2-yl)-2-(4′-fluoro-[1,1′-biphenyl]-4-yl)-2-oxoacetamide] | 50 to 5000 nM
O=C(N[C@H](CN1CCCC1)[C@H](O)c1ccc(OC2CC2)c(Cl)c1)C(=O)c1ccc(N2CCCCC2)cc1 [Compound 231, N-((1R,2R)-1-(3-chloro-4-cyclopropoxyphenyl)-1-hydroxy-3-(pyrrolidin-1-yl)propan-2-yl)-2-oxo-2-(4-(piperidin-1-yl)phenyl)acetamide] | < 50 nM

same assay, conditions: Table 3; MDCK cell lysate; read-out: IC50 (nM) generated from Assay 1

Compound | IC50
O=C(N[C@H](CN1CCCC1)[C@H](O)c1ccc(OC2CC2)c(F)c1)C(=O)c1ccc(C2CC2)cc1 [Example 395, N-((1R,2R)-1-(4-cyclopropoxy-3-fluorophenyl)-1-hydroxy-3-(pyrrolidin-1-yl)propan-2-yl)-2-(4-cyclopropylphenyl)-2-oxoacetamide] | < 50 nM
